Laboratory results from paper PMC4335872, “Pharmacokinetic-Pharmacodynamic Analysis of Spiroindolone Analogs and KAE609 in a Murine Malaria Model” (Antimicrobial Agents and Chemotherapy, 2015).

Tests used:
[1] = system: P. berghei GFP ANKA malaria strain PbGFPCON; design: method as in PMID 20813948; settings: cited from earlier work
[2] = system: P. berghei; test: Dose fractionation and PK-PD analysis of KAE609 in the P. berghei malaria mouse model; assay type: in vivo, NMRI mice; settings: for Parasitemia (mean ± SD): 48 h posttreatment; for %T>TRE: simulated, 48-h period
Method: The total daily doses were either administered as a single dose (24 h postinfection) or divided into two oral doses (BID) or three oral doses (TID) per day (Table 1). Four mice were used for each regimen, with the control mice receiving vehicle only. Parasitemia, expressed as parasitized red blood cells (pRBCs) of >100 RBCs, was determined at 72 h postinfection (48 h after the initiation of treatment with KAE609) using standard flow cytometry techniques ([39]).
The concentration of compounds that inhibited 99% of P. berghei growth (IC99) was used to calculate the threshold (TRE = 2 × IC99) and the PK-PD indices. […] The Cmax/TRE, AUC0–48/TRE, and %T>TRE at different doses and dosing regimens were calculated using the Berkeley Madonna Software (version 8.0.1) (Berkeley Madonna, University of California, Berkeley, Berkeley, CA).
The relationship between PK-PD indices (log-transformed Cmax/TRE, log-transformed AUC0–48/TRE, and %T>TRE) and log-transformed parasitemia was analyzed by nonlinear regression analysis. An exploratory analysis of the PK-PD data was done using various models, such as maximum effect (Emax), sigmoid Emax, and with and without slope. A sigmoidal dose-response (variable-slope) model without constants was fitted to the data. GraphPad Prism version 5.02 for Windows (GraphPad Software, San Diego, CA, USA) was the software used for this analysis. The model choice was guided initially by a visual inspection of the y-by-x plots and then by correlation analysis and by evaluating the standard error of the estimate. The parasitemia (P) measures at any value of each different PK-PD index are expressed in equation 1, where EZ50 (otherwise referred to as EC50) is the value of the specific PK-PD index (Cmax/TRE, AUC0–48/TRE, and %T>TRE, respectively) required to produce 50% of the maximal effect, x is any of the PK-PD indices, and Pmax, Pmin, and s are as described previously. The values of x corresponding to the maximum reduction in parasitemia were derived by interpolation based on equation 1.

[3] = interpolated from PK-PD model, 48 h observation
[4] = total dose 0.5 mg/kg p.o. as 1 x 0.5 mg/kg
[5] = total dose 0.5 mg/kg p.o. as 2 x 0.25 mg/kg (every 12 h)
[6] = total dose 0.5 mg/kg p.o. as 3 x 0.17 mg/kg (every 8 h)
[7] = total dose 1 mg/kg p.o. as 1 x 1 mg/kg
[8] = total dose 1 mg/kg p.o. as 2 x 0.5 mg/kg (every 12 h)
[9] = total dose 1 mg/kg p.o. as 3 x 0.33 mg/kg (every 8 h)
[10] = total dose 2 mg/kg p.o. as 1 x 2 mg/kg
[11] = total dose 2 mg/kg p.o. as 2 x 1 mg/kg (every 12 h)
[12] = total dose 2 mg/kg p.o. as 3 x 0.67 mg/kg (every 8 h)
[13] = total dose 4 mg/kg p.o. as 1 x 4 mg/kg
[14] = total dose 4 mg/kg p.o. as 2 x 2 mg/kg (every 12 h)
[15] = total dose 4 mg/kg p.o. as 3 x 1.33 mg/kg (every 8 h)
[16] = total dose 8 mg/kg p.o. as 1 x 8 mg/kg
[17] = total dose 8 mg/kg p.o. as 2 x 4 mg/kg (every 12 h)
[18] = total dose 8 mg/kg p.o. as 3 x 2.67 mg/kg (every 8 h)

In the case of C[C@H]1Cc2c([nH]c3cc(Cl)c(F)cc23)[C@@]2(N1)C(=O)Nc1ccc(Cl)cc12 [(+)-7 (KAE609)], the “Single oral dose giving 50% reduction in parasitemia” value ([1]; P. berghei malaria mouse model) is given as 1.2 mg/kg, the “Single oral dose giving 90% reduction in parasitemia” value ([1]; P. berghei malaria mouse model) is given as 2.7 mg/kg and the “Single oral dose giving 99% reduction in parasitemia” value ([1]; P. berghei malaria mouse model) is given as 5.3 mg/kg. The Cure rate ([1]; single dose of 30 mg/kg) was 50%, the Animals cured ([1]; single oral dose of 100 mg/kg) was 100% and the Cure ([1]; thrice-daily oral doses of 50 mg/kg) was “complete cure”. The “Type of killing suggested by PK-PD analysis” value ([2]; P. berghei malaria mouse model) was “time-dependent rather than concentration-dependent killing”, the “AUC for reduction in parasitemia in the P. berghei murine malaria model” value ([2]; TRE = 48 ng/ml) was 28,176 ng · h/ml and the “Cmax for reduction in parasitemia in the P. berghei murine malaria model” value ([2]; TRE = 48 ng/ml) was 1,440 ng/ml. The “Cmax needed to reduce parasitemia by 50% in vivo” value ([2]; as derived from Cmax/TRE (Table 5)) was 260 ng/mL, the “AUC0–48/TRE ratio likely to result in the maximum reduction in parasitemia” value [2, 3] was 587 and the “Cmax/TRE ratio likely to result in the maximum reduction in parasitemia” value [2, 3] was 30. The “T>TRE likely to result in the maximum reduction in parasitemia” value [2, 3] was 100%, the “Hill slope, value (95% CI), PK-PD model for %T>TRE” value ([2]; parasitemia vs %T>TRE) was −0.031 (−0.037 to −0.024) and the “Pmax, value (95% CI), PK-PD model for %T>TRE” value ([2]; parasitemia vs %T>TRE) was 53.09 (32.28 to 87.50). For the same compound, the “Pmin, value (95% CI), PK-PD model for %T>TRE” value ([2]; parasitemia vs %T>TRE) was 0.15 (0.12 to 0.20), the “Hill slope, value (95% CI), PK-PD model for AUC0–48/TRE” value ([2]; parasitemia vs AUC0–48/TRE) was −1.63 (−2.04 to −1.22) and the “Pmax, value (95% CI), PK-PD model for AUC0–48/TRE” value ([2]; parasitemia vs AUC0–48/TRE) was 32.66 (25.06 to 42.56). The “Pmin, value (95% CI), PK-PD model for AUC0–48/TRE” value ([2]; parasitemia vs AUC0–48/TRE) was 0.13 (0.09 to 0.20), the “Parasitemia (mean ± SD)” value [2, 4] was 28.82 ± 4.49% and the “%T>TRE” value [2, 4] was 4.3%. For the same compound, the “Parasitemia (mean ± SD)” value [2, 5] was 38.28 ± 2.95%, the “%T>TRE” value [2, 5] was 0% and the “Parasitemia (mean ± SD)” value [2, 6] was 35.37 ± 5.32%. For the same compound, the “%T>TRE” value [2, 6] was 0%, the “Parasitemia (mean ± SD)” value [2, 7] was 17.82 ± 3.05% and the “%T>TRE” value [2, 7] was 10.7%. The “Parasitemia (mean ± SD)” value [2, 8] was 18.19 ± 6.81%, the “%T>TRE” value [2, 8] was 8.8% and the “Parasitemia (mean ± SD)” value [2, 9] was 20.31 ± 5.71%. For the same compound, the “%T>TRE” value [2, 9] was 0%, the “Parasitemia (mean ± SD)” value [2, 10] was 5.64 ± 1.69% and the “%T>TRE” value [2, 10] was 23.0%. The “Parasitemia (mean ± SD)” value [2, 11] was 6.48 ± 3.94%, the “%T>TRE” value [2, 11] was 22.7% and the “Parasitemia (mean ± SD)” value [2, 12] was 10.83 ± 4.67%. The “%T>TRE” value [2, 12] was 22.3%, the “Parasitemia (mean ± SD)” value [2, 13] was 0.63 ± 0.57% and the “%T>TRE” value [2, 13] was 54.5%. For the same compound, the “Parasitemia (mean ± SD)” value [2, 14] was 0.43 ± 0.38%, the “%T>TRE” value [2, 14] was 56.1% and the “Parasitemia (mean ± SD)” value [2, 15] was 0.55 ± 0.28%. For the same compound, the “%T>TRE” value [2, 15] was 57.3%, the “Parasitemia (mean ± SD)” value [2, 16] was 0.15 ± 0.03% and the “%T>TRE” value [2, 16] was 99.9%. The “Parasitemia (mean ± SD)” value [2, 17] was 0.18 ± 0.04%, the “%T>TRE” value [2, 17] was 99.8% and the “Parasitemia (mean ± SD)” value [2, 18] was 0.16 ± 0.02%. For the same compound, the “%T>TRE” value [2, 18] was 99.8%.
